Laboratory results taken from paper PMC8795197, “Safety and activity of WX-0593 (Iruplinalkib) in patients with ALK- or ROS1-rearranged advanced non-small cell lung cancer: a phase 1 dose-escalation and dose-expansion trial” (Signal Transduction and Targeted Therapy, 2022).
Where two headings read alike, the source gives them in different places.

Legend:
[1] = tested on: Ba/F3 ALK-C1156Y; test: Growth of transfected Ba/F3 cells (CellTiter-Glo, 3 days); type: cell-based; conditions: Mus musculus, BaF3; ALK-C1156Y; read-out: IC50
Method: (§1) Harvest cells during the logarithmic growth period and count cells using blood counting chamber. Adjust cell concentration with culture medium. Add 90µl cell suspensions to two 96-well plates to the final cell density as described before. Incubate the plate overnight in humidified incubator at 37℃ with 5% CO2. Dispense 10µl drug solution (10×) to each well (triplicate for each concentration), and the DMSO final concentration in culture medium is 0.1% [v/v]. Culture the plates for 3 days. On Day 3, Read luminescent using Multi Label Reader. The software of GraphPad Prism was used to calculate IC50. The graphical curves were fitted using a nonlinear regression model with a sigmoidal dose response.

[2] = tested on: Ba/F3 ALK-F1174C; test: as above; type: cell-based; conditions: Mus musculus, BaF3, ALK-F1174C, read-out: IC50
Method: as §1

[3] = tested on: Ba/F3 ALK-F1174L; test: as above; type: cell-based; conditions: Mus musculus, BaF3; ALK-F1174L; read-out: IC50
Method: as §1

[4] = tested on: Ba/F3 ALK-F1174V; test: as above; type: cell-based; conditions: Mus musculus, BaF3; ALK-F1174V; read-out: IC50
Method: as §1

[5] = tested on: Ba/F3 ALK-G1202R; test: as above; type: cell-based; conditions: Mus musculus, BaF3; ALK-G1202R; read-out: IC50
Method: as §1

[6] = tested on: Ba/F3 ALK-G1202del; test: as above; type: cell-based; conditions: Mus musculus, BaF3; ALK-G1202del; read-out: IC50
Method: as §1

[7] = tested on: Ba/F3 ALK-G1269A; test: as above; type: cell-based; conditions: Mus musculus, BaF3; ALK-G1269A; read-out: IC50
Method: as §1

[8] = tested on: Ba/F3 ALK-I1171N; test: as above; type: cell-based; conditions: Mus musculus, BaF3; ALK-I1171N; read-out: IC50
Method: as §1

[9] = tested on: Ba/F3 ALK-I1171S; test: as above; type: cell-based; conditions: Mus musculus, BaF3, ALK-I1171S, read-out: IC50
Method: as §1

[10] = tested on: Ba/F3 ALK-I1171T; test: as above; type: cell-based; conditions: Mus musculus, BaF3; ALK-I1171T; read-out: IC50
Method: as §1

[11] = tested on: Ba/F3 ALK-L1152P; test: as above; type: cell-based; conditions: Mus musculus, BaF3; ALK-L1152P; read-out: IC50
Method: as §1

[12] = tested on: Ba/F3 ALK-L1152R; test: as above; type: cell-based; conditions: Mus musculus, BaF3; ALK-L1152R; read-out: IC50
Method: as §1

[13] = tested on: Ba/F3 ALK-L1196M; test: as above; type: cell-based; conditions: Mus musculus, BaF3; ALK-L1196M; read-out: IC50
Method: as §1

[14] = tested on: Ba/F3 ALK-T1151Tins; test: as above; type: cell-based; conditions: Mus musculus, BaF3; ALK-T1151Tins; read-out: IC50
Method: as §1

[15] = tested on: Ba/F3 ALK-V1180L; test: as above; type: cell-based; conditions: Mus musculus, BaF3; ALK-V1180L; read-out: IC50
Method: as §1

[16] = tested on: Ba/F3 ALK-WT; test: as above; type: cell-based; conditions: Mus musculus, BaF3; ALK-WT; read-out: IC50
Method: as §1

[17] = tested on: Ba/F3 (EML4-ALK-L1196M); test: Cell proliferation inhibition assay; type: cell-based
[18] = tested on: 21 GPCR targets; test: GPCR agonist screening assay; type: cell-based; conditions: all 21 GPCR targets
Text: In the agonist screening assay, the activity percent at maximum dose of WX-0593 was all less than 50% for the 21 GPCR targets tested.

[19] = tested on: ALK+ human lung cancer LU-01-0015 xenograft; test: PDX model, anti-tumor activity; type: in vivo
Method: (§2) The anti-tumor activity of WX-0593 was evaluated in two PDX models. […] WX-0593 was well-tolerated at all concentrations.

[20] = tested on: ALK+ human lung cancer LU-01-0319 xenograft; test: PDX model, anti-tumor activity; type: in vivo
Method: as §2

[21] = Repeated-dose toxicity study, 28 days oral gavage
Method: Repeated administration for 28 days was carried out. 3, 10, and 30 mg/kg were administered to rats. 1, 3, and 10 mg/kg were administered to cynomolgus monkeys.

Work on COc1cc(N2CCC3(CCN(C)CC3)CC2)ccc1Nc1ncc(Cl)c(Nc2ccccc2P(C)(C)=O)n1 [WX-0593] yielded an IC50 [1] of 9 nM, an IC50 ([2]; first listing (r10)) of 36 nM and an IC50 ([2]; second listing (r15)) of 29.3 nM. For the same molecule, the IC50 [3] was 36 nM, the IC50 [4] was 22.3 nM and the IC50 [5] was 96 nM. It also gave an IC50 [6] of 930 nM, an IC50 [7] of 36 nM and an IC50 [8] of 17.9 nM. For the same molecule, the IC50 ([9]; first listing (r12)) was 32 nM, the IC50 ([9]; second listing (r19)) was 21.4 nM and the IC50 [10] was 11.3 nM. For the same molecule, the IC50 [11] was 1.5 nM, the IC50 [12] was 4.6 nM and the IC50 [13] was 36 nM. For the same molecule, the IC50 [14] was 12 nM, the IC50 [15] was 8.4 nM and the IC50 [16] was 21 nM. The growth inhibition [17] was “significantly inhibits the growth”, the “activity percent at maximum dose (agonist)” value [18] was “less than 50%” and the EC50 ([18]; highest dose detected) was > 133000 nM. The anti-tumor activity ([19]; 15 mg/kg, 10 mg/kg (D0–D7)/2.5 mg/kg (D8–D27), 5 mg/kg) was “significant anti-tumor activity”, the body weight ([19]; all treatment arms) was “no significant decrease in weight” and the anti-tumor activity ([20]; 1, 2.5 and 5 mg/kg) was “good anti-tumor activity”. For the same molecule, the mean body weight ([20]; all treatment arms) was “no significant decrease in mean weight”, the “human equivalent dose (HED)” value ([21]; 1/5 of NOAEL, 60 kg/person) was 12 mg/person and the human equivalent dose ([21]; 1/6 of HNSTD, 60 kg/person) was 32 mg/person. For the same molecule, the “highest non-severely toxic dose (HNSTD)” value ([21]; 28 days oral gavage) was “greater than 10 mg/kg/day”, the “HNSTD as multiple of the effective dose in nude mice” value ([21]; cynomolgus monkey, in vivo) was 16 times and the “NOAEL as multiple of the effective dose in nude mice” value ([21]; cynomolgus monkey, in vivo) was 4.8 times.
